{"source": "patent US6290993A", "about": "“Compositions containing mimosa phenolic compounds” (E-L Management Corp., priority 1999, dated 2001)", "test_system": "Normal human dermal fibroblasts", "test": "Collagen-increasing activity, ELISA for collagen type 1 or procollagen type 1", "type": "cell-based", "conditions": "5 ng/ml, positive control, 4 days incubation", "procedure": "Normal human dermal fibroblasts are seeded and grown to confluence in a 96-well plate prior to being treated with M. pudica extract or fractions thereof, prepared by solvent/solvent extractions (heptane/70% ethanol, ethyl acetate/water) at various concentrations in complete medium. Media alone serves as negative control and TGF-β serves as positive control. The plates are incubated for 4 days at 37° C./5% CO2 before the supernatants are harvested and stored at -70° C. until an ELISA is performed. Antibodies to collagen type 1 or procollagen type 1 are used for ELISA analysis to determine collagen levels.", "data": [{"substance": "TGF-β", "values": [{"measurement": "increase in collagen levels", "value": 46, "unit": "%"}]}]}
